Data taken from patent US20240279232A1, “USE OF SUBSTITUTED 5-(4-METHYL-6-PHENYL-4H-BENZO[F]IMIDAZO[1,5-A][1,4] DIAZEPIN-3-YL)-1,2,4-O[…] THE TREATMENT OF INFLAMMATORY CONDITIONS” (priority 2021, published 2024).

Experiments:
Mouse microglia = experiment: Cell viability (CellTiter-Glo), mouse microglia; type: cell-based; settings: 50 μM; for Cell viability (%) Mouse microglia 50 μM: CellTiter-Glo; for toxicity at 50 μM (in words): microglia
Summary of the method: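 Mouse microglia (1×10^6 cells/mL) activated with 50 ng/ml LPS plus 150 U/mL IFNγ, incubated with compounds ~24 h at 37° C. Viability of remaining cells read by CellTiter-Glo luminescence after supernatant removal for Griess NO assay; […].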

HEK293 = experiment: Viability assay (CellTiter-Glo), HEK293; type: cell-based, human; settings: for Cell viability (%) HEK293 120 μM: CellTiter-Glo; for toxicity at 120 μM (in words): HEK293, 120 μM
RAW macrophages [1] = experiment: Cell viability (CellTiter-Glo), RAW macrophages; type: cell-based, mouse; settings: for Cell viability (%) RAW macrophages 50 μM: CellTiter-Glo; for toxicity at 50 μM (in words): macrophages
HEPG2 = experiment: Viability assay (CellTiter-Glo), HEPG2; type: cell-based, human; settings: for Cell viability (%) HEPG2 120 μM: CellTiter-Glo; for toxicity at 120 μM (in words): HepG2, 120 μM
RAW macrophages [2] = experiment: NO production (Griess assay), LPS/IFNγ-activated RAW264.7 macrophages; type: cell-based, mouse; settings: Mus musculus, Macrophage, 24 h
[3] = tested on: BZR (benzodiazepine site of GABAAR); experiment: GABAAR/BZR binding, rat brain homogenate with 3H-flunitrazepam; settings: for BZR %: Percent inhibition at 10,000 nM
Summary of the method: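 Primary screen at 10,000 nM; where displacement exceeded 50%, Ki came from nonlinear regression of concentration–response data (n=6). Radioligand was 3H-flunitrazepam at roughly Kd on rat brain homogenate, usually 90 min, room temperature, dark, with 10 μM reference compound for nonspecific binding, then filtration and scintillation counting.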

[4] = rat brain homogenate, 3H-flunitrazepam

Row | SMILES | Cell viability (%) Mouse microglia 50 μM (Mouse microglia) | Cell viability (%) HEK293 120 μM (HEK293) | Cell viability (%) RAW macrophages 50 μM (RAW macrophages [1]) | Cell viability (%) HEPG2 120 μM (HEPG2) | inhibition at 10 µM (RAW macrophages [2]) | BZR % [3, 4] | Ki [3, 4] | inhibition at 50 µM (RAW macrophages [2]) | toxicity at 50 μM (in words) (Mouse microglia) | toxicity at 120 μM (in words) (HEK293) | toxicity at 50 μM (in words) (RAW macrophages [1]) | toxicity at 120 μM (in words) (HEPG2) | Percent Competition BZP Rat Brain Site ([3]; PDSP primary screening) | IC50 ([3]; rat brain homogenate, 3H-flunitrazepam, read-out: affinity for the benzodiazepine site of GABAARs (IC50))
1 | CCOC(=O)c1ncn2c1[C@@H](C)N=C(c1ccccc1F)c1cc(C3CC3)ccc1-2 [GL-III-42] | 82 ± 10% | 62 ± 11% | 100 ± 6% | 100 ± 8% | 0% | 62% | 726 nM |  |  |  |  |  |  | 
2 | C#Cc1ccc2c(c1)C(c1ccccc1F)=N[C@H](C)c1c(-c3cnco3)ncn1-2 [GL-III-73] | 80 ± 9% | 86 ± 6% | 100 ± 4% | 100 ± 9% | 1 ± 6% | 65% | 602 nM |  |  |  |  |  |  | 
3 | C#Cc1ccc2c(c1)C(c1ccccc1F)=N[C@H](C)c1c(C(=O)NC(C)C)ncn1-2 [GL-III-66] | 85 ± 15% | 46 ± 4% | 100 ± 9% | 86 ± 8% | 6 ± 4% | 88% | 271 nM |  |  |  |  |  |  | 
4 | C[C@H]1N=C(c2ccccc2F)c2cc(Br)ccc2-n2cnc(-c3cnco3)c21 [GL-III-36] | 97 ± 9% | 80 ± 9% | 81 ± 5% | 100 ± 9% | 0% | 86% | 319 nM | 58 ± 9% |  |  |  |  |  | 
5 | C[C@H]1N=C(c2ccccn2)c2cc(Br)ccc2-n2cnc(C(=O)O)c21 [GL-II-51] | 95 ± 2% | 91 ± 4% | 100 ± 3% | 100 ± 16% | 0% | 84% | 181 nM |  |  |  |  |  |  | 
6 | C#Cc1ccc2c(c1)C(c1ccccc1F)=N[C@H](C)c1c(C(=O)NC)ncn1-2 [MP-III-022] | 86 ± 2% | 75 ± 13% | 100 ± 11% | 94 ± 7% | 9 ± 5% | 95% | 83 nM | 51 ± 7% |  |  |  |  |  | 
7 | CCOC(=O)c1ncn2c1[C@@H](C)N=C(c1ccccn1)c1cc(Br)ccc1-2 [GL-II-06] | 87 ± 13% | 83 ± 13% | 100 ± 10% | 89 ± 5% | 4 ± 2% | 81% | 556 nM |  |  |  |  |  |  | 
8 | C#Cc1ccc2c(c1)C(c1ccccc1F)=N[C@H](C)c1c(-c3nc(C(C)C)no3)ncn1-2 [MP-IV-010, (R)-5-(8-ethynyl-6-(2-fluorophenyl)-4-methyl-4H-benzo[f]imidazo[1,5-a][1,4]diazepin-3-yl)-3-isopropyl-1,2,4-oxadiazole] | 91 ± 10% | 41 ± 4% | 81 ± 10% | 45 ± 7% | 10 ± 2% | 64% | 814 nM | 63 ± 11% | no significant toxicity | some cytotoxicity | no significant toxicity | to a lesser degree | 64% | 2500 nM
9 | C[C@@H]1N=C(c2ccccc2F)c2cc(Br)ccc2-n2cnc(-c3cnco3)c21 [GL-III-76] | 80 ± 2% | 59 ± 4% | 100 ± 5% | 90 ± 6% | 0% | 100% | 120 nM |  |  |  |  |  |  | 
10 | C[C@H]1N=C(c2ccccc2F)c2cc(Br)ccc2-n2cnc(C(=O)N(C)C)c21 [GL-III-69] | 87 ± 6% | 73 ± 10% | 98 ± 10% | 88 ± 5% | 0% | 100% | 446 nM |  |  |  |  |  |  | 
11 | CCc1noc(-c2ncn3c2[C@@H](C)N=C(c2ccccc2F)c2cc(C4CC4)ccc2-3)n1 [GL-IV-03, (R)-5-(8-Cyclopropyl-6-(2-fluorophenyl)-4-methyl-4H-benzo[f]imidazo[1,5-a][1,4]diazepin-3-yl)-3-ethyl-1,2,4-oxadiazole] | 100 ± 5% | 47 ± 5% | 97 ± 7% | 39 ± 5% | 75% | 65% |  |  | no significant toxicity | some cytotoxicity | no significant toxicity | to a lesser degree |  | 
12 | Cc1noc(-c2ncn3c2[C@@H](C)N=C(c2ccccc2F)c2cc(C4CC4)ccc2-3)n1 [GL-III-63, (R)-5-(8-Cyclopropyl-6-(2-fluorophenyl)-4-methyl-4H-benzo[f]imidazo[1,5-a][1,4]diazepin-3-yl)-3-methyl-1,2,4-oxadiazole] | 100 ± 8% | 18 ± 4% | 87 ± 15% | 16 ± 6% | 13 ± 4% | 28% |  | 62 ± 12% |  | toxic |  | toxic |  | 
13 | C[C@H]1N=C(c2ccccc2F)c2cc(Cl)ccc2-n2cnc(C(=O)O)c21 [GL-III-54] | 82 ± 6% | 96 ± 12% | 99 ± 12% | 93 ± 4% | 6 ± 4% | 100% | 42 nM |  |  |  |  |  |  | 
14 | C#Cc1ccc2c(c1)C(c1ccccc1F)=N[C@@H](C)c1c(-c3cnco3)ncn1-2 [GL-III-78] | 79 ± 6% | 56 ± 8% | 97 ± 2% | 100 ± 15% | 0% | 101% | 26 nM |  |  |  |  |  |  | 
15 | C#Cc1ccc2c(c1)C(c1ccccc1F)=N[C@H](C)c1c(-c3nc(C)no3)ncn1-2 [MP-IV-004] | 100 ± 5% | 40 ± 8% | 83 ± 12% | 100 ± 4% | 0% | 63% | 1080 nM | 51 ± 7% |  |  |  |  |  | 
16 | CCNC(=O)c1ncn2c1[C@@H](C)N=C(c1ccccc1F)c1cc(C3CC3)ccc1-2 [GL-III-68] | 83 ± 3% | 56 ± 11% | 100 ± 8% | 83 ± 2% | 5 ± 1% | 100% | 452 nM |  |  |  |  |  |  | 
17 | C[C@H]1N=C(c2ccccc2F)c2cc(C3CC3)ccc2-n2cnc(C(=O)N(C)C)c21 [GL-III-70] | 86 ± 2% | 86 ± 12% | 100 ± 2% | 100 ± 5% | 2 ± 2% | 100% | 3400 nM |  |  |  |  |  |  | 
18 | Cc1noc(-c2ncn3c2[C@@H](C)N=C(c2ccccc2F)c2cc(Br)ccc2-3)n1 [GL-III-60, (R)-5-(8-Bromo-6-(2-fluorophenyl)-4-methyl-4H-benzo[f]imidazo[1,5-a][1,4]diazepin-3-yl)-3-methyl-1,2,4-oxadiazole] | 100 ± 9% | 64 ± 6% | 86 ± 12% | 100 ± 11% | 0% | 100% | 784 nM | 39 ± 8% |  |  |  |  |  | 
